Measurements published in patent publication US20250154686A1, “COMPOUND LIBRARY” (CHUGAI SEIYAKU KABUSHIKI KAISHA, priority 2021, published 2025).

Biological target: T1, Bcl-2 protein (Recombinant Human Bcl-2 Protein) (Homo sapiens, UniProt P10415)
T1 construct: purchased Novus Biologicals NBP2-34889
Experiment: AS-MS evaluation of binding of the Example 4 mixture library (1200 compounds/well) to Bcl-2, ASMS ratio (%)
Conditions: mixture library, value belongs to the MS peak assigned to the compound; for ASMS ratio (%) n = 1: replicate n = 1; for ASMS ratio (%) n = 2: replicate n = 2
Procedure: DMSO solutions (prepared into approximately 0.58 mM based on calculation from the average molecular weight of each mixture) of 12 types of mixtures that could each contain 100 compounds, i.e., mixAI-B4J-01, mixAI-B1M-01, mixAI-B1K-01, mixAI-BIO-01, mixAI-B1A-01, mixAI-B3A-01, mixAI-B21-01, mixAI-B2L-01, mixAI-B2N-01, mixAI-B2A-01, mixAI-B2Q-01, and mixAI-B2R-01, shown in Table AI-03-B4J-01, Table AI-03-B1M-01, Table AI-03-B1K-01, Table AI-03-B10-01, Table AI-03-B1A-01, Table AI-03-B3A-01, Table AI-03-B21-01, Table AI-03-B2L-01, Table AI-03-B2N-01, Table AI-03-B2A-01, Table AI-03-B2Q-01, and Table AI-03-B2R-01 described in Example 4, were respectively dispensed to a total of 12 wells of MICROPLATE, 96-well, PP, V-BOTTOM (Greiner Bio-One International GmbH, 651201). 70 nL each from the 12 wells was collected into any one well using LABCYTE ECHO® 555 acoustic dispensing system (Beckman Coulter, Inc.) to prepare a sample solution in a mixed state of 1200 compounds (the presence of 1152 compounds was already identified when the mixtures were prepared in Example 4). Further, Bcl-2 protein (Novus Biologicals, NBP2-34889, Recombinant Human Bcl-2 Protein, Lot E60145051) (19.2 μL) prepared at 20.9 μM in advance using a Tris-HCl buffer (25 mM Tris-HCl, pH 7.4, 150 mM NaCl, 0.025% Tween-20, and 1 mM DTT) was added to the well containing the dispensed 1200 compounds (the presence of 1152 compounds was already identified when the mixtures were prepared in Example 4) (final compound concentration: 20 nM, final Bcl-2 concentration: 20 μM), and the plate was incubated at 23° C. for 1 hour in the dark. Subsequently, 200 μL of an assay buffer (25 mM Tris-HCl, pH 7.4, 150 mM NaCl, 0.025% Tween-20, and 1 mM DTT) was centrifuged three times at 2000×G at 4° C. for 2 minutes using 96-well MacroSpin column, P-2 Material (Harvard Bioscience, Inc., 74-5655) that had been allowed to swell to condition the 96-well MacroSpin column. Subsequently, 20 μL of the sample thus incubated was added to the 96-well MacroSpin column, P-2 Material after the completion of conditioning, and SEC treatment was performed by centrifugation at 2000×G for 2 minutes. 32 μL of a 1:1 mixed solution of acetonitrile and methanol (LC/MS grade, FUJIFILM Wako Pure Chemical Corp.) was added to a flow-through liquid from SEC, and the mixture was centrifuged at 1800×G at 4° C. for 5 minutes. The supernatant was used as analysis sample ASMS (A). By a similar operation, a sample prepared at 1200 compounds/well and supplemented with only a Tris-HCl buffer containing no Bcl-2 protein was incubated under the same conditions as above, and the same organic solvent as above was added thereto without 96-well MacroSpin column treatment. A supernatant obtained by a centrifugation operation was used as STD (B). Next, by a similar operation, a sample prepared at 1200 compounds/well and supplemented with only a Tris-HCl buffer containing no Bcl-2 protein was incubated under the same conditions as above and treated with 96-well MacroSpin column in the same manner as above, and the same organic solvent as above was added thereto. A supernatant obtained by a centrifugation operation was used as BK (C). These samples were measured by reverse-phase LC/MS.
Then, the samples A, B and C were analyzed for the 1200 compounds using TraceFinder 5.1 (Thermo Fisher Scientific Inc.) and CHANCE Software (in-house), and an ASMS ratio (%) was calculated according to the following expression.
Although m/z of the MS peaks was confirmed down to four decimal places, 0 at the decimal level may be omitted in the description in Table AJ-01. For example, “587.0000” is also referred to as “587”, “587.1000” is also referred to as “587.1”, “587.1200” is also referred to as “587.12”, and “587.1230” is also referred to as “587.123”.

T1 sequence (P10415 whole entry): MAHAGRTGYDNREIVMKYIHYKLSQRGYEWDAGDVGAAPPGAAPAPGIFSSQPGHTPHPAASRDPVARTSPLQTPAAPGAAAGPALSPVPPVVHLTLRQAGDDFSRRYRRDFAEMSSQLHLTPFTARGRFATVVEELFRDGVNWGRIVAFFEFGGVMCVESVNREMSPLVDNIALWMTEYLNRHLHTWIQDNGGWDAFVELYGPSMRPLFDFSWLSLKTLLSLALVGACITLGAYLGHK

SMILES | ASMS ratio (%) n = 1 | ASMS ratio (%) n = 2
CCOc1cccc(-c2ccc(CN3CCN(c4ccc(C(=O)NS(C)(=O)=O)cc4)CC3)c(CC)c2)c1 [Compound B2I049-01, 4-[4-[[4-(3-Ethoxyphenyl)-2-ethylphenyl]methyl]piperazin-1-yl]-N-methylsulfonylbenzamide] | 0.0% | 0.0%
CCOc1cncc(-c2ccc(CN3CCN(c4ccc(C(=O)NS(C)(=O)=O)cc4)CC3)c(CC)c2)c1 [Compound B2I050-01, 4-[4-[[4-(5-Ethoxypyridin-3-yl)-2-ethylphenyl]methyl]piperazin-1-yl]-N-methylsulfonylbenzamide] | 0.0% | −1.5%
CCOc1cccc(-c2ccc(CN3CCN(c4ccc(C(=O)NS(C)(=O)=O)cc4)CC3)cc2F)c1 [Compound B2I051-01, 4-[4-[[4-(3-Ethoxyphenyl)-3-fluorophenyl]methyl]piperazin-1-yl]-N-methylsulfonylbenzamide] | 0.0% | 0.0%
CCOc1cncc(-c2ccc(CN3CCN(c4ccc(C(=O)NS(C)(=O)=O)cc4)CC3)cc2F)c1 [Compound B2I052-01, 4-[4-[[4-(5-Ethoxypyridin-3-yl)-3-fluorophenyl]methyl]piperazin-1-yl]-N-methylsulfonylbenzamide] | 0.0% | 0.0%
CCOc1cccc(-c2ccc(CN3CCN(c4ccc(C(=O)NS(C)(=O)=O)cc4)CC3)c(OC)c2)c1 [Compound B2I053-01, 4-[4-[[4-(3-Ethoxyphenyl)-2-methoxyphenyl]methyl]piperazin-1-yl]-N-methylsulfonylbenzamide] | 0.0% | 0.0%
CCOc1cncc(-c2ccc(CN3CCN(c4ccc(C(=O)NS(C)(=O)=O)cc4)CC3)c(OC)c2)c1 [Compound B2I054-01, 4-[4-[[4-(5-Ethoxypyridin-3-yl)-2-methoxyphenyl]methyl]piperazin-1-yl]-N-methylsulfonylbenzamide] | 0.0% | 0.0%
CCOc1cccc(-c2cc(CN3CCN(c4ccc(C(=O)NS(C)(=O)=O)cc4)CC3)cc(OCC)c2)c1 [Compound B2I055-01, 4-[4-[[3-Ethoxy-5-(3-ethoxyphenyl)phenyl]methyl]piperazin-1-yl]-N-methylsulfonylbenzamide] | 0.0% | 0.0%
CCOc1cncc(-c2cc(CN3CCN(c4ccc(C(=O)NS(C)(=O)=O)cc4)CC3)cc(OCC)c2)c1 [Compound B2I056-01, 4-[4-[[3-Ethoxy-5-(5-ethoxypyridin-3-yl)phenyl]methyl]piperazin-1-yl]-N-methylsulfonylbenzamide] | 0.0% | 0.0%
CCOc1cccc(-c2cc(CN3CCN(c4ccc(C(=O)NS(C)(=O)=O)cc4)CC3)cc(OC(C)C)c2)c1 [Compound B2I057-01, 4-[4-[[3-(3-Ethoxyphenyl)-5-propan-2-yloxyphenyl]methyl]piperazin-1-yl]-N-methylsulfonylbenzamide] | 0.0% | 0.0%
CCOc1cncc(-c2cc(CN3CCN(c4ccc(C(=O)NS(C)(=O)=O)cc4)CC3)cc(OC(C)C)c2)c1 [Compound B2I058-01, 4-[4-[[3-(5-Ethoxypyridin-3-yl)-5-propan-2-yloxyphenyl]methyl]piperazin-1-yl]-N-methylsulfonylbenzamide] | 0.0% | 0.0%
CCOc1cccc(-c2cc(OC)c(CN3CCN(c4ccc(C(=O)NS(C)(=O)=O)cc4)CC3)c(OC)c2)c1 [Compound B2I059-01, 4-[4-[[4-(3-Ethoxyphenyl)-2,6-dimethoxyphenyl]methyl]piperazin-1-yl]-N-methylsulfonylbenzamide] | 0.0% | 0.0%
CCOc1cncc(-c2cc(OC)c(CN3CCN(c4ccc(C(=O)NS(C)(=O)=O)cc4)CC3)c(OC)c2)c1 [Compound B2I060-01, 4-[4-[[4-(5-Ethoxypyridin-3-yl)-2,6-dimethoxyphenyl]methyl]piperazin-1-yl]-N-methylsulfonylbenzamide] | 0.0% | 0.0%
CCOc1cccc(-c2cc(CN3CCN(c4ccc(C(=O)NS(C)(=O)=O)cc4)CC3)cc(C(F)(F)F)c2)c1 [Compound B2I061-01, 4-[4-[[3-(3-Ethoxyphenyl)-5-(trifluoromethyl)phenyl]methyl]piperazin-1-yl]-N-methylsulfonylbenzamide] | −0.8% | 0.5%
CCOc1cncc(-c2cc(CN3CCN(c4ccc(C(=O)NS(C)(=O)=O)cc4)CC3)cc(C(F)(F)F)c2)c1 [Compound B2I062-01, 4-[4-[[3-(5-Ethoxypyridin-3-yl)-5-(trifluoromethyl)phenyl]methyl]piperazin-1-yl]-N-methylsulfonylbenzamide] | 0.0% | 0.0%
CCOc1cccc(-c2cc(CN3CCN(c4ccc(C(=O)NS(C)(=O)=O)cc4)CC3)cc(OC(F)(F)F)c2)c1 [Compound B2I063-01, 4-[4-[[3-(3-Ethoxyphenyl)-5-(trifluoromethoxy)phenyl]methyl]piperazin-1-yl]-N-methylsulfonylbenzamide] | 0.9% | 0.0%
CCOc1cncc(-c2cc(CN3CCN(c4ccc(C(=O)NS(C)(=O)=O)cc4)CC3)cc(OC(F)(F)F)c2)c1 [Compound B2I064-01, 4-[4-[[3-(5-Ethoxypyridin-3-yl)-5-(trifluoromethoxy)phenyl]methyl]piperazin-1-yl]-N-methylsulfonylbenzamide] | 0.0% | 0.0%
CCOc1cccc(-c2ccc(CN3CCN(c4ccc(C(=O)NS(C)(=O)=O)cc4)CC3)c3ccccc23)c1 [Compound B2I065-01, 4-[4-[[4-(3-Ethoxyphenyl)naphthalen-1-yl]methyl]piperazin-1-yl]-N-methylsulfonylbenzamide] | 0.0% | 0.0%
CCOc1cncc(-c2ccc(CN3CCN(c4ccc(C(=O)NS(C)(=O)=O)cc4)CC3)c3ccccc23)c1 [Compound B2I066-01, 4-[4-[[4-(5-Ethoxypyridin-3-yl)naphthalen-1-yl]methyl]piperazin-1-yl]-N-methylsulfonylbenzamide] | 0.0% | 0.0%
CCOc1cccc(-c2csc(CN3CCN(c4ccc(C(=O)NS(C)(=O)=O)cc4)CC3)c2)c1 [Compound B2I067-01, 4-[4-[[4-(3-Ethoxyphenyl)thiophen-2-yl]methyl]piperazin-1-yl]-N-methylsulfonylbenzamide] | 0.0% | 0.0%
CCOc1cncc(-c2csc(CN3CCN(c4ccc(C(=O)NS(C)(=O)=O)cc4)CC3)c2)c1 [Compound B2I068-01, 4-[4-[[4-(5-Ethoxypyridin-3-yl)thiophen-2-yl]methyl]piperazin-1-yl]-N-methylsulfonylbenzamide] | 0.0% | 0.0%
